The record followed here is patent US20210228463A1, “COMPOSITION FOR FAT FORMATION INHIBITION AND BODY FAT REDUCTION, CONTAINING HYDRANGENOL AS ACTIVE INGREDIENT” (COSMAX BIO CO., LTD., priority 2019, published 2021).

A short description of data set [1]: Body weight- and fat-reducing effects of HG in obese mice. It is filed as in vivo. As to conditions: obese mice (HFD); for changes in the body weight: oral administration at the same time with induction of obesity, 5 days per week for 12 weeks, FIG. 13; for body fat (dual-energy X-ray absorptiometry, fat weight): oral administration, 12 weeks, FIGS. 14 and 15. How it is done: To analyze in vivo anti-obesity efficacy of HG, animal models of obesity were prepared. 8-week-old male C57BL/6N mice (SPF grade, 20±2 g, Orient Bio) were set into 7 groups as follows, and 10 mice per each group were tested: as normal control groups, normal mice (con) with no high fat diet and no administration, and obese mice (HFD) with induction of obesity by 30% high fat diet and no administration, and as a positive control group, obese mice with oral administration of orlistat which is an anti-obesity agent. As experimental groups, obese mice with oral administration of HG of 20 mg/kg, 40 mg/kg, or 80 mg/kg, and normal mice with oral administration of HG of 80 mg/kg were used. Mice were administered with HG at the same time with induction of obesity, and HG was administered for 5 days per week for 12 weeks. A dark: light cycle was maintained at intervals of 12 hours: 12 hours, and mice were allowed to free access to water. An experiment was performed to analyze whether the body weight and fat of mice decreased when HG was administered. […] In addition, images of a fat distribution and body fat contents of mice of each experimental group were measured by dual-energy X-ray absorptiometry in the last week of the animal test. Each mice was sacrificed, and a visceral adipose tissue including epididymal fat was separated and a fat was weighed. The experimental results were tested for a significant difference between groups using a t-test in the Sigma plot statistical program (p#<0.05 vs normal control, p*<0.05, r<0.01, P***<0.001 vs obese group). As a result, it was confirmed that body fat was decreased in the positive control group and the HG-administered group (FIGS. 14 and 15).

Data set [2] is described as follows: Effects of HG on liver and kidney (serum GOT, GPT, BUN). It is filed as in vivo, mice. How it is done:
(§1) To analyze in vivo anti-obesity efficacy of HG, animal models of obesity were prepared. 8-week-old male C57BL/6N mice (SPF grade, 20±2 g, Orient Bio) were set into 7 groups as follows, and 10 mice per each group were tested: as normal control groups, normal mice (con) with no high fat diet and no administration, and obese mice (HFD) with induction of obesity by 30% high fat diet and no administration, and as a positive control group, obese mice with oral administration of orlistat which is an anti-obesity agent. As experimental groups, obese mice with oral administration of HG of 20 mg/kg, 40 mg/kg, or 80 mg/kg, and normal mice with oral administration of HG of 80 mg/kg were used. Mice were administered with HG at the same time with induction of obesity, and HG was administered for 5 days per week for 12 weeks. A dark: light cycle was maintained at intervals of 12 hours: 12 hours, and mice were allowed to free access to water. To examine whether HG induced liver and kidney damage, glutamic oxalacetic transaminase (GOT), glutamic pyruvate transaminase (GPT), and blood urea nitrogen (BUN) were measured by serum analysis using a biochemical analyzer (AU480 Chemistry Analyzer, Beckman coulter, Calif., USA).

Data set [3] can be described thus: Changes of blood triglyceride and blood cholesterol by HG. As to conditions: blood. It is filed as in vivo, mice. As for the experimental part:
as §1, with “analyze the effects of” for “examine whether”, “on blood triglyceride” for “induced liver and kidney damage, glutamic oxalacetic transaminase (GOT), glutamic pyruvate transaminase (GPT),”, “cholesterol, a hematological-biochemical test was performed” for “urea nitrogen (BUN) were measured by serum analysis”

The test system of a further data set is AMPK. The data set is described as follows: Expression of p-AMPK protein in adipose and liver tissues by HG. As to conditions: HG-treated group, Western blotting, FIG. 18. It is filed as in vivo, mice. How it is done: as §1, with “To examine whether HG induced liver and kidney damage, glutamic oxalacetic transaminase (GOT), glutamic pyruvate transaminase (GPT), and blood urea nitrogen (BUN) were measured by serum analysis using a biochemical analyzer (AU480 Chemistry Analyzer, Beckman coulter, Calif., USA).” left out
Specifically, adipose and liver tissues were mixed with a protein extraction solution, homogenized using a tissue homogenizer, and then centrifuged at 4° C., 15,000 rpm for 30 minutes to obtain a supernatant, and then a standard curve was created using the Bradford method to quantify protein. […]

Setting [4] is: HG-administered group, Table 4 and FIG. 17.
[5] abbreviates: obese mice (HFD) + HG 20 mg/kg oral, 12 weeks.
[6] abbreviates: obese mice (HFD) + HG 40 mg/kg oral, 12 weeks.
Where [7] appears, read: obese mice (HFD) + HG 80 mg/kg oral, 12 weeks.
Setting [8] is: serum, obese mice (HFD) + oral orlistat.
Setting [9] is: obese mice (HFD) + oral orlistat.

For `O=C1OC(c2ccc(O)cc2)Cc2cccc(O)c21` (stereo not drawn) [HG, 8-hydroxy-3-(4-hydroxyphenyl)-3,4-dihydroisochromen-1-one], in data set [1], the “changes in the body weight” value is listed as “body weight-reducing effects were observed” and the “body fat (dual-energy X-ray absorptiometry, fat weight)” value is “decreased”. Besides, the “GOT, GPT and BUN, difference between 7 groups” value in data set [2] (mouse, in vivo) was “no significant difference”. Moreover, in data set [3] (HG-administered group, Table 4), the HDL level result is recorded as “no significant difference” and the triglyceride level entry is on record as “no significant difference”. Besides, in data set [3] (setting [4]), the LDL entry is “reduction” and the total cholesterol entry was “reduction”. In data set [3] (normal mice + HG 80 mg/kg oral), the CHOL was 96.20 mg/dL, the HDL was determined as 66.40 mg/dL, the LDL was 5.70 mg/dL and the TG came out at 80.10 mg/dL. Further, in data set [3] (setting [5]), the CHOL was determined as 126.78 mg/dL, the HDL turned out to be 80.78 mg/dL, the LDL came to 7.78 mg/dL and the TG is 74.63 mg/dL. In addition, in data set [3] (setting [6]), the CHOL was found to be 112.56 mg/dL, the HDL came out at 71.89 mg/dL, the LDL amounted to 7.38 mg/dL and the TG was 58.89 mg/dL. In addition, in data set [3] (setting [7]), the CHOL came out at 110.14 mg/dL, the HDL was determined as 71.20 mg/dL, the LDL was determined as 7.13 mg/dL and the TG is 63.78 mg/dL. Besides, the “amount of phosphorylated AMPK protein” value with AMPK was “increased”.

As to `CCCCCCCCCCC[C@@H](C[C@@H]1OC(=O)[C@H]1CCCCCC)OC(=O)[C@H](CC(C)C)NC=O` [Orlistat, orlistat], in data set [1], the “changes in the body weight” value was “body weight-reducing effects were observed” and the “body fat (dual-energy X-ray absorptiometry, fat weight)” value is on record as “decreased”. Besides, in data set [2] (setting [8]), the BUN was 19.89 mg/dL, the GOT came out at 63 U/L and the GPT worked out at 17.6 U/L. For the same compound, in data set [3] (setting [9]), the CHOL was found to be 115.63 mg/dL, the HDL stood at 83.70 mg/dL, the LDL came to 8.60 mg/dL and the TG was 76.40 mg/dL.
